Reference: PMC13372822 (The EMBO Journal, 2026)
Positions count from the first letter of the chain named.

Tests used:
[1] = biological target: T1, OXGR1 (Homo sapiens, UniProt Q96P68, L299P); test: Immunofluorescence assay of OXGR1 internalization; type: cell-based; settings: 300 μM AKG, 0 or 30 min at 37°C
T1 construct: The full-length human OXGR1 and mutations were fused after the HA signal peptide and Flag tag; HA; expressed in transfected cells; host or cells: HEK293, transient
Experimental: (§1) Figure. R2 | Effect of L2997x50P mutant on activation and internalization of OXGR1. […]
(§2) responses. Responses were normalized to 100% for wild-type. Data are mean ± S.E.M. from three independent experiments (n = 3), with three technical replicates performed for each […]
(§3) experiment. […] HEK293 cells transiently […]
(§4) transfected with HA-tagged OXGR1 -WT or L299 7x50P mutant, were incubated with 300 μM […]
(§5) OXGR1 were stained with anti-HA (green). Cell nuclei were (1 picture or pasted object on this page, not shown here)

[2] = biological target: T2, OXGR1 (Homo sapiens, UniProt Q96P68); test: cAMP assay, Gi pathway (OXGR1-Gi-cAMP Assay); type: cell-based; parameters: The full-length human OXGR1 and mutations were fused after the HA signal peptide and Flag tag; HA signal peptide (N); Flag (N); expressed in transfected cells; host or cells: HEK293 (pcDNA3.0, transient electroporation); settings: OXGR1 WT
Experimental: (§6) In brief, cells expressing OXGR1 were seeded in a plate at a density of 1 × 10^6 cells/well and cultured overnight. After 24 h culture, cells were harvested and re-suspended in DMEM containing 500 µM IBMX at a density of 2 × 10^5 cells/mL. Then, cells were plated onto 384-well assay plates at a density of 1000 cells/5 µL/well. Another 5 µL buffer containing compounds at various concentrations was added to the cells, and the incubation lasted for 30 min at 37 °C. Intracellular cAMP level was tested by a LANCE Ultra cAMP kit (PerkinElmer, TRF0264) and EnVision multiplate reader according to the manufacturer’s instructions.

[3] = biological target: T2, OXGR1; test: Immunofluorescence assay of OXGR1 internalization; type: cell-based; parameters: The full-length human OXGR1 and mutations were fused after the HA signal peptide and Flag tag; HA; expressed in transfected cells; host or cells: HEK293, transient; settings: 300 μM AKG, 0 or 30 min at 37°C
Experimental: as §1, §2, §3, §4, §5

[4] = biological target: T3, SUCR1 (Homo sapiens, UniProt Q9BXA5); test: Calcium mobilization assay, wild-type SUCR1 in HEK293 stably expressing Gα16; type: cell-based; settings: for activation of SUCR1: in words;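 as to Emax: percent of the maximal response to succinate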
T3 construct: The full-length human SUCR1 and mutations were fused after the HA signal peptide and Flag tag; HA signal peptide (N); Flag (N); expressed in transfected cells; host or cells: HEK293 stably expressing Gα16 (pcDNA6.0, transient electroporation)
T3 sequence (Q9BXA5 1-334): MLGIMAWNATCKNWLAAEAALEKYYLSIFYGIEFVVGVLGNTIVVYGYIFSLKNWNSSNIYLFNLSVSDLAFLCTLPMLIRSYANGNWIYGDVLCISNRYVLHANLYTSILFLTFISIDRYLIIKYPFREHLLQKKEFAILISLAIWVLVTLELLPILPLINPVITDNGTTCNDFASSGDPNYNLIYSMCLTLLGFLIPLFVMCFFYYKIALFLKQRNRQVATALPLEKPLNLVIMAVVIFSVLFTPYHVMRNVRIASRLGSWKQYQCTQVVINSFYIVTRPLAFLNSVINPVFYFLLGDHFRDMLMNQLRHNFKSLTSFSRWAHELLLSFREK
Experimental: The full-length human SUCR1 and mutations were fused after the HA signal peptide and Flag tag. The constructs were cloned into pcDNA6.0 vector for HEK293 system.
(§7) HEK293 cells were obtained from ATCC (Manassas, VA, USA) and cultured in DMEM supplemented with 10% (v/v) FBS, 100 mg/L penicillin, and 100 mg/L streptomycin in 5% CO2 at 37 °C. For transient transfection, ~2.5 × 10^6 cells were mixed with 2 µg plasmids in 200 µL transfection buffer, and electroporation was carried out with a Scientz-2C electroporation apparatus (Scientz Biotech, Ningbo, China). The experiments were carried out 24 h after transfection. HEK293 cell lines stably expressing Gα16 were constructed by our laboratory.
(§8) For OXGR1, plasmids were transfected into HEK293 (other receptors were transfected into HEK293 stably expressing Gα16) and seeded at a density of 4 × 10^4 per well into 96-well culture plates and incubated for 24 h at 37 °C in 5% CO2. The next day, Cells were incubated with 2 μM/L Fluo-4 AM in HBSS supplemented with 5.6 mM/L D-glucose and 250 μM/L sulfinpyrazone at 37 °C for 45 min. […] Three independent measurements were repeated, i.e., three different transfections, with three technical replicates performed for each experiment. EC50 and Emax values for each curve were calculated by Prism 8.0 software (GraphPad Software).

[5] = biological target: T2, OXGR1; test: cAMP assay, Gs pathway (OXGR1-Gs-cAMP-Assay); type: cell-based; parameters: The full-length human OXGR1 and mutations were fused after the HA signal peptide and Flag tag; HA signal peptide (N); Flag (N); expressed in transfected cells; host or cells: HEK293 (pcDNA3.0, transient electroporation); settings: OXGR1 WT
Experimental: as §6

[6] = biological target: T4, HCAR1 (Homo sapiens, UniProt Q9BXC0); test: Calcium mobilization assay, HCAR1 in HEK293 stably expressing Gα16; type: cell-based; settings: in words; related receptor
T4 construct: expressed in transfected cells; host or cells: HEK293 stably expressing Gα16
T4 sequence (Q9BXC0 whole entry, species assumed): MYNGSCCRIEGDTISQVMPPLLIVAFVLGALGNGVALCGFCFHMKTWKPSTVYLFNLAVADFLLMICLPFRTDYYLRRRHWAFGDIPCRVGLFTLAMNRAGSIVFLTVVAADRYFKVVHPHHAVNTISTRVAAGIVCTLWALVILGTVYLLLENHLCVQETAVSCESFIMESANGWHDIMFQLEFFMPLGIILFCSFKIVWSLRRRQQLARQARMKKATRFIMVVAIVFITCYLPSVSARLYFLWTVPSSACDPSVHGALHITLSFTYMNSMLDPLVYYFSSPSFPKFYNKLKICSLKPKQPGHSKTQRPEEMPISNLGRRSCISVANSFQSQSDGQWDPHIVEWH
Experimental: as §7, §8

[7] = biological target: T5, HCAR2 (Homo sapiens, UniProt Q8TDS4); test: Calcium mobilization assay, HCAR2 in HEK293 stably expressing Gα16; type: cell-based; settings: in words; related receptor
T5 construct: expressed in transfected cells; host or cells: HEK293 stably expressing Gα16
T5 sequence (Q8TDS4 whole entry): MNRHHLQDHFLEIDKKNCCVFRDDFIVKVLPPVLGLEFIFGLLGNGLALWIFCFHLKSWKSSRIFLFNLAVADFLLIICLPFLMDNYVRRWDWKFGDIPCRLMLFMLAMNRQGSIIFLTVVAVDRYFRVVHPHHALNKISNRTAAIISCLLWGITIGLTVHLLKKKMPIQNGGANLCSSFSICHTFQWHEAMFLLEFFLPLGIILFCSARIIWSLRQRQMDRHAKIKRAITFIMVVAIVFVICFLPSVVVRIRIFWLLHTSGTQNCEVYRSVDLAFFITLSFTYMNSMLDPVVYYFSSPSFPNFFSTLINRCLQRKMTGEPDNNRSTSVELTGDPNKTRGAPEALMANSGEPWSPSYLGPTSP
Experimental: as §7, §8

[8] = tested on: SUCR1 mutants (variant named in the endpoint); test: Calcium mobilization assay, SUCR1 mutants in HEK293 stably expressing Gα16; type: cell-based, human; settings: in words
[9] = biological target: T6, SUCR1 mutants (variant named in the endpoint) (Homo sapiens, UniProt Q9BXA5, F285A/L102F/Y248F); test: as above; type: cell-based; settings: SUCR1 L102F-F285A-Y248F
T6 construct: The full-length human SUCR1 and mutations were fused after the HA signal peptide and Flag tag; HA signal peptide (N); Flag (N); expressed in transfected cells; host or cells: HEK293 stably expressing Gα16 (pcDNA6.0, transient electroporation)
T6 sequence (Q9BXA5 1-334 L102F/Y248F/F285A): T3 sequence (Q9BXA5 1-334) with L102F, Y248F, F285A

| SMILES | internalization of OXGR1 L299P mutant [1] | activation of Gi signaling [2] | internalization of WT-OXGR1 [3] | Emax ([4]; HEK293) [%] | activation of SUCR1 [4] | activation of Gs signaling [5] | activation of HCAR1 [6] | activation of HCAR2 [7] | ITA activation of SUCR1-L102F, SUCR1-L102F-F285A, SUCR1-L102F-F175L [8] | EC50 [9] [µM] |
| --- | --- | --- | --- | --- | --- | --- | --- | --- | --- | --- |
| O=C(O)CCC(=O)C(=O)O [AKG, α-ketoglutarate] | remains at the plasma membrane | no detectable activation | internalizes | 3.5 ± 3 | no cross-reactivity | no detectable activation |  |  |  |  |
| C=C(CC(=O)O)C(=O)O [ITA, itaconate] |  | no detectable activation |  |  | only minimal activation | no detectable activation | no detectable activation | no detectable activation | further enhanced ITA activation in both potency and efficiency |  |
| O=C(O)CCC(=O)O [SUC, succinate] |  |  |  |  |  |  |  |  |  | 2200 ± 220 |
